Results published in patent US10045940B2, “Composition comprising an antibiotic and a corticosteroid” (Intervet Inc., priority 2008, dated 2018).

Assay: Storage stability of the formulation of Table 1 (prior formulation without fatty acid)
Assay type: physicochemical
Settings: in the formulation of Table 1
Method: Applicants have observed an increase in at least one mometasone degradation product over time when the above formulation is stored at room temperature. […] The formation of the degradation product generally can be minimized by storing the formulation at colder temperatures (e.g., 5° C.). There is, however, a need for a formulation that can remain stable at greater temperatures (e.g., room temperature). This invention provides such a formulation.

With `C[C@@H]1CN(c2c(F)c(F)c3c(=O)c(C(=O)O)cn(C4CC4)c3c2F)C[C@H](C)N1` [orbifloxacin] the “Effect of the orbifloxacin in the formulation on formation of the mometasone degradation product” value was “accelerates the formation of the degradation product”.
